Measurements reported in US10710978B2, “STK4 inhibitors for treatment of hematologic malignancies” (Dana-Farber Cancer Institute, Inc., priority 2015, dated 2020).
Where “and” joins values, the source holds several entries; their conditions need not be identical. Identical values can stand only once. Like-named read-outs stand apart in the source and are kept apart here.

How the values were obtained:
IKKe, TBK1 = assay: KiNativ assay; format: binding; conditions: H929 live cell
Experimental: (§1) Biochemical IC50s of the compounds of the present disclosure against various kinases were measured in a KiNativ assay. Compounds were screened in duplicate at 10 μM in H929 live cell. IC50 was measured via Mass spectroscopy (MS).

PKN1 = PKN1 (Homo sapiens (Human), UniProt Q16512); assay: KiNativ assay; format: binding; conditions: H929 live cell
Experimental: as §1

CDK2 = CDK2 (Homo sapiens (Human), UniProt P24941); assay: KiNativ assay; format: binding; conditions: H929 live cell
Experimental: as §1

PIP5K3 = PIP5K3 (Homo sapiens (Human), UniProt Q9Y2I7); assay: KiNativ assay; format: binding; conditions: H929 live cell
Experimental: as §1

MST4 = assay: KiNativ assay; format: binding; conditions: H929 live cell
Experimental: as §1

STLK5 = STLK5 (Homo sapiens (Human), UniProt Q7RTN6); assay: KiNativ assay; format: binding; conditions: H929 live cell
Sequence of STLK5 (Q7RTN6 whole entry): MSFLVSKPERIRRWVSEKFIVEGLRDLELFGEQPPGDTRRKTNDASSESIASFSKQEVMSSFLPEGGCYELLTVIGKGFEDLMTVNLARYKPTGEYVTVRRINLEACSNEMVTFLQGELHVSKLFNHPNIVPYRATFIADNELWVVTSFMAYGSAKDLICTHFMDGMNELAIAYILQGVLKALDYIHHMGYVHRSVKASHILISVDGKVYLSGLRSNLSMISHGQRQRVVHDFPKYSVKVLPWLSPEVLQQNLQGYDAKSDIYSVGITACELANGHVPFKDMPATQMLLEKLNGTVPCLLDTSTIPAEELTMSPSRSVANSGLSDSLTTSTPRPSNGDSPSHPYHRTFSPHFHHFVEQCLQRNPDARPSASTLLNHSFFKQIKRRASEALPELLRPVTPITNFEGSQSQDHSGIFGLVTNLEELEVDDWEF
Experimental: as §1

NEK7 = NEK7 (Homo sapiens (Human), UniProt Q8TDX7); assay: KiNativ assay; format: binding; conditions: H929 live cell
Experimental: as §1

MSK1 domain1 = MSK1 domain1 (Homo sapiens (Human), UniProt O75582); assay: KiNativ assay; format: binding; conditions: H929 live cell
Experimental: as §1

PKCi = PKCi (Homo sapiens (Human), UniProt P41743); assay: KiNativ assay; format: binding; conditions: H929 live cell
Sequence of PKCi (P41743 whole entry): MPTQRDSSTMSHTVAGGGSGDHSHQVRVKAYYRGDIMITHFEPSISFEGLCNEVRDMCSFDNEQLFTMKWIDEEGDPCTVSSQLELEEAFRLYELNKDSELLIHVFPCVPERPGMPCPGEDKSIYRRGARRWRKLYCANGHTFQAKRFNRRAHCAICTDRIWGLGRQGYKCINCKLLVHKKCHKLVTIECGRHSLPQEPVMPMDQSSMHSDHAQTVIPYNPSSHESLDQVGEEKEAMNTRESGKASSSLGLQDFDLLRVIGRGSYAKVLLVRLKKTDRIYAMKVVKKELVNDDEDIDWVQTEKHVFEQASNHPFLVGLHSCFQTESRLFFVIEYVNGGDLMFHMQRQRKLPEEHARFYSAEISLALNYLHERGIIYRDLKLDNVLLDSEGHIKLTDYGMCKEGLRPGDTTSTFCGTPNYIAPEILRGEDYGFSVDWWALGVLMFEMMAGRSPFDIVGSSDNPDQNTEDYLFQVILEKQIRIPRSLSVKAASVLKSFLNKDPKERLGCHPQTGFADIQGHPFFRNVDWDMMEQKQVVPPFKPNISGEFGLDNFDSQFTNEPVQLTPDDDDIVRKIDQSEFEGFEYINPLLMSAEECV
Experimental: as §1

CaMKK2 = CaMKK2 (Homo sapiens (Human), UniProt Q96RR4); assay: KiNativ assay; format: binding; conditions: H929 live cell
Sequence of CaMKK2 (Q96RR4 whole entry): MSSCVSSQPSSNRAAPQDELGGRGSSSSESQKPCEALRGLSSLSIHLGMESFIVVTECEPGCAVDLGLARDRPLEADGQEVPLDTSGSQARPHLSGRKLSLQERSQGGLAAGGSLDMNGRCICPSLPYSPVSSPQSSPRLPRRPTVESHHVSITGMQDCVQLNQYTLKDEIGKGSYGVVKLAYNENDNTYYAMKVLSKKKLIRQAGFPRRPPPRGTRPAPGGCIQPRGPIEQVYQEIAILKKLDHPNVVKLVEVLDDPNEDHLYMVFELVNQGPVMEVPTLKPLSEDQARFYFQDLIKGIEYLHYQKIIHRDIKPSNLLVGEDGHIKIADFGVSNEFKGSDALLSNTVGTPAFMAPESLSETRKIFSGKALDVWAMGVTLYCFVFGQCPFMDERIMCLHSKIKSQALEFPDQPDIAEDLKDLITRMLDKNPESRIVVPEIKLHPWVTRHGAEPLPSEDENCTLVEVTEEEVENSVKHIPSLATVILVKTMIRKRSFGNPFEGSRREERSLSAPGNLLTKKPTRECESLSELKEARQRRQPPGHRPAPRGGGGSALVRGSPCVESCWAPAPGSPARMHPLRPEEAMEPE
Experimental: as §1

MAP3K4 = MAP3K4 (Homo sapiens (Human), UniProt Q9Y6R4); assay: KiNativ assay; format: binding; conditions: H929 live cell
Experimental: as §1

MST3 = MST3 (Homo sapiens (Human), UniProt Q9Y6E0); assay: KiNativ assay; format: binding; conditions: H929 live cell
Experimental: as §1

MLKL = MLKL (Homo sapiens (Human), UniProt Q8NB16); assay: KiNativ assay; format: binding; conditions: H929 live cell
Experimental: as §1

RSK1 domain1 = RSK1 domain1 (Homo sapiens (Human), UniProt Q15418); assay: KiNativ assay; format: binding; conditions: H929 live cell
Experimental: as §1

TLK2 = TLK2 (Homo sapiens (Human), UniProt Q86UE8); assay: KiNativ assay; format: binding; conditions: H929 live cell
Sequence of TLK2 (Q86UE8 whole entry): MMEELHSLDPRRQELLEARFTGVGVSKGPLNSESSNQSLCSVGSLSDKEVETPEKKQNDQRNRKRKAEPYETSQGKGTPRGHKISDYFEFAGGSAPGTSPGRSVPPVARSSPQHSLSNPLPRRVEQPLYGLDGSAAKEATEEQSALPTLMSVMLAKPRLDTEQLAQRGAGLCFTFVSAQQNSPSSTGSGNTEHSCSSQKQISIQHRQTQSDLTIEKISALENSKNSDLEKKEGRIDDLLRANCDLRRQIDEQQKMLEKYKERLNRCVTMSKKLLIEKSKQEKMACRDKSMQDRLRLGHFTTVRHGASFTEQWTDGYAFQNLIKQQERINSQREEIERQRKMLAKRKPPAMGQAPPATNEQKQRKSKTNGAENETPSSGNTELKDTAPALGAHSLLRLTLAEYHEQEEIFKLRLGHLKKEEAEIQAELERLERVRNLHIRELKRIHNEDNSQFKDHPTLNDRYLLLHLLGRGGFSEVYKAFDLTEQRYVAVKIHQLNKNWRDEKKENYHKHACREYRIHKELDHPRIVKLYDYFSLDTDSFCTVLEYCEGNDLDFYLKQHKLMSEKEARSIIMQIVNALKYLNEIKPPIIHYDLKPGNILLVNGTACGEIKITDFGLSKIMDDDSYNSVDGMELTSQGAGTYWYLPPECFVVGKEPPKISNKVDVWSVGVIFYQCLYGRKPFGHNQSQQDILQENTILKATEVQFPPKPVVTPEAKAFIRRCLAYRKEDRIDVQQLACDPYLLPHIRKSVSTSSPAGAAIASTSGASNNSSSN
Experimental: as §1

HPK1 = HPK1 (Homo sapiens (Human), UniProt Q92918); assay: KiNativ assay; format: binding; conditions: H929 live cell
Experimental: as §1

AMPKa1, AMPKa2 = assay: KiNativ assay; format: binding; conditions: H929 live cell
Experimental: as §1

PI4KA, PI4KAP2 = assay: KiNativ assay; format: binding; conditions: H929 live cell
Experimental: as §1

p38a = p38a (Homo sapiens (Human), UniProt Q16539); assay: KiNativ assay; format: binding; conditions: H929 live cell, read-out: % inhibition (range)
Experimental: as §1

FYN, SRC, YES = assay: KiNativ assay; format: binding; conditions: H929 live cell
Experimental: as §1

AurA = AurA (Homo sapiens (Human), UniProt O14965); assay: KiNativ assay; format: binding; conditions: H929 live cell
Sequence of AurA (O14965 whole entry): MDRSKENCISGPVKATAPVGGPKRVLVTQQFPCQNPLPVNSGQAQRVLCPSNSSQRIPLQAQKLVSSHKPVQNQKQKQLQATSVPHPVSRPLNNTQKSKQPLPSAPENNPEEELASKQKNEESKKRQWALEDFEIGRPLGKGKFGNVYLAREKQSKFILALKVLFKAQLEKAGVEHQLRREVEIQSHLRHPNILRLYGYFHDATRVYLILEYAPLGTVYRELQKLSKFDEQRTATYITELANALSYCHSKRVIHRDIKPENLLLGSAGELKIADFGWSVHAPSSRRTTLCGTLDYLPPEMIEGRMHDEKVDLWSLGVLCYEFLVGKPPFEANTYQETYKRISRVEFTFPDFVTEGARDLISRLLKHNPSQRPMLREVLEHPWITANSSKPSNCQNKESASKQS
Experimental: as §1

PIP4K2C = PIP4K2C (Homo sapiens (Human), UniProt Q8TBX8); assay: KiNativ assay; format: binding; conditions: H929 live cell
Experimental: as §1

PLK1 = PLK1 (Homo sapiens (Human), UniProt P53350); assay: KiNativ assay; format: binding; conditions: H929 live cell
Sequence of PLK1 (P53350 whole entry): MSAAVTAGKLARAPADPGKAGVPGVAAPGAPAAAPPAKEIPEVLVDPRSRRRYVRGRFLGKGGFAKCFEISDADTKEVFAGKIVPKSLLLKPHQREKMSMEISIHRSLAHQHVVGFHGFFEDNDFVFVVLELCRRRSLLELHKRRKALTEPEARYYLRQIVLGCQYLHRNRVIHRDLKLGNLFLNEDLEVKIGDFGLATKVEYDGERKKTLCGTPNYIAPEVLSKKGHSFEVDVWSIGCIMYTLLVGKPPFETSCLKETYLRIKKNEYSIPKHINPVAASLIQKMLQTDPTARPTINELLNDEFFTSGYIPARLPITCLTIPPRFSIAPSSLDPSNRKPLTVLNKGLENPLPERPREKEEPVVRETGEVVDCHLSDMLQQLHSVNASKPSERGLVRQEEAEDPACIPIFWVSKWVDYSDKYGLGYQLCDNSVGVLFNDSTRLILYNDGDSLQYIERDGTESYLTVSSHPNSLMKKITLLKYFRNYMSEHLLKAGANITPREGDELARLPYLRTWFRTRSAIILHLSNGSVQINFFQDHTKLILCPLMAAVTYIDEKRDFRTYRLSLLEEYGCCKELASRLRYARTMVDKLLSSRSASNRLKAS
Experimental: as §1

OSR1 = OSR1 (Homo sapiens (Human), UniProt O95747); assay: KiNativ assay; format: binding; conditions: H929 live cell
Sequence of OSR1 (O95747 whole entry): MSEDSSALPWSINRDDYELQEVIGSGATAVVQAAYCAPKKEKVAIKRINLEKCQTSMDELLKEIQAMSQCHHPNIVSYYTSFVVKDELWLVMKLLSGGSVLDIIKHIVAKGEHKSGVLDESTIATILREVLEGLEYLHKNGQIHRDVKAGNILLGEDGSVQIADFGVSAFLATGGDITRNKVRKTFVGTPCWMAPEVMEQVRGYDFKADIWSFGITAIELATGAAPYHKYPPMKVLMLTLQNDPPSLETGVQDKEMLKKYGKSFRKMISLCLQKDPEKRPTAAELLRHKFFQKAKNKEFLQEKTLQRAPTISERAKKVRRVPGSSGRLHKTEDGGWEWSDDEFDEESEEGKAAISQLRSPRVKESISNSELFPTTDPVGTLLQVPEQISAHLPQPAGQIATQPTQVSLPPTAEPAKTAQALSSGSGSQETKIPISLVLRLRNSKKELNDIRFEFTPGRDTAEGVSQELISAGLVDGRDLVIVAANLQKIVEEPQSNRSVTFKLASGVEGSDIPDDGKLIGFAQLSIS
Experimental: as §1

NuaK1 = NuaK1 (Homo sapiens (Human), UniProt O60285); assay: KiNativ assay; format: binding; conditions: H929 live cell
Sequence of NuaK1 (O60285 whole entry): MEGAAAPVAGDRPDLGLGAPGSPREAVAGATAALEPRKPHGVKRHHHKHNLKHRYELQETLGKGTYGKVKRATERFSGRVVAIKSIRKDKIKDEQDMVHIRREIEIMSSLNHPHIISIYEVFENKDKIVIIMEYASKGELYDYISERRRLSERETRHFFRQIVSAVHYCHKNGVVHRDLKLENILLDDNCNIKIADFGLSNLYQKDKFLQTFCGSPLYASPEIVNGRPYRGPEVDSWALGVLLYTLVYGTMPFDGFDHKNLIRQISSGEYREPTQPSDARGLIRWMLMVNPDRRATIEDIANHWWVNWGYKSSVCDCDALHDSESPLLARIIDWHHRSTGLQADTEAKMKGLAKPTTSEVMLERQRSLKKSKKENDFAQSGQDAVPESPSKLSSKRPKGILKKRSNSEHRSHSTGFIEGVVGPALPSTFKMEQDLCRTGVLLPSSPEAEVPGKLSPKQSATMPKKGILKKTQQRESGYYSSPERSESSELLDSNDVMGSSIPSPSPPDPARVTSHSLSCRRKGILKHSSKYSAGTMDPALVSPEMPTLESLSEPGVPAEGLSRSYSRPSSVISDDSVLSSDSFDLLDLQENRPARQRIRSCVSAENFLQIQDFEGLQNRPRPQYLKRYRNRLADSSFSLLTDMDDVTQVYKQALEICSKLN
Experimental: as §1

MAP2K3 = MAP2K3 (Homo sapiens (Human), UniProt P46734); assay: KiNativ assay; format: binding; conditions: H929 live cell
Sequence of MAP2K3 (P46734 whole entry): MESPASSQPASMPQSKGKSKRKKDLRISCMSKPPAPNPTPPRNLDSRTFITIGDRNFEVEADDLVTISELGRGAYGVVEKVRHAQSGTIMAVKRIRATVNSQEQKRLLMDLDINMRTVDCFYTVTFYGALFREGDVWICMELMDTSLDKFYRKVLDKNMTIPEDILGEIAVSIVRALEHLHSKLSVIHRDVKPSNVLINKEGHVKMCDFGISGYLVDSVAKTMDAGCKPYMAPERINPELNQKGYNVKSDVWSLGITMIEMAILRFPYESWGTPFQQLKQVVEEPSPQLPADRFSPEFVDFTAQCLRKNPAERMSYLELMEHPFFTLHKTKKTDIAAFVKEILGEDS
Experimental: as §1

TLK1 = TLK1 (Homo sapiens (Human), UniProt Q9UKI8); assay: KiNativ assay; format: binding; conditions: H929 live cell
Experimental: as §1

STK24 (MST3) = STK24 (MST3) (Homo sapiens (Human), UniProt Q9Y6E0); assay: Z-lyte biochemical IC50 assay (Invitrogen); conditions: ATP concentration matched the Km
Procedure, shortened: (§2)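 FRET-based Z-lyte kinase assays run at Invitrogen, ATP at each kinase's Km; for STK4, 6.25-160 ng enzyme with 2 μM Ser/Thr 07 peptide in HEPES pH 7.5, MgCl2, EGTA, Brij-35, 1 h reaction then development reagent. 10-point 3-fold titration from 10 μM.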

STK4 (MST1) = STK4 (MST1) (Homo sapiens (Human), UniProt Q13043); assay: Z-lyte biochemical IC50 assay (Invitrogen); conditions: ATP concentration matched the Km
Procedure, shortened: as §2

Nc1ncc(-c2cccc([N+](=O)[O-])c2F)cc1-c1ccc2c(c1)CCNC2=O [Compound I-9, 6-(2-amino-5-(2-fluoro-3-nitrophenyl)pyridin-3-yl)-3,4-dihydroisoquinolin-1(2H)-one]
% inhibition (range) (IKKe, TBK1; 10 μM): 0.0%
inhibition (10 μM) (IKKe, TBK1): 21.2%
inhibition at 10 µM (PKN1; read-out: % inhibition (range)): 50 to 75%
inhibition at 10 µM (PKN1; read-out: inhibition (10 μM)): 56.9%
inhibition at 10 µM (CDK2; read-out: % inhibition (range)): 50 to 75%
inhibition at 10 µM (CDK2; read-out: inhibition (10 μM)): 68.5%
inhibition at 10 µM (PIP5K3; read-out: % inhibition (range)): > 90%
inhibition at 10 µM (PIP5K3; read-out: inhibition (10 μM)): 92%
inhibition (10 μM) (MST4): 47.0%
inhibition at 10 µM (STLK5; read-out: % inhibition (range)): 0%
inhibition at 10 µM (STLK5; read-out: inhibition (10 μM)): -14.9%
inhibition at 10 µM (NEK7; read-out: % inhibition (range)): 0%
inhibition at 10 µM (NEK7; read-out: inhibition (10 μM)): -39.5%
inhibition at 10 µM (MSK1 domain1; read-out: % inhibition (range)): 0%
inhibition at 10 µM (MSK1 domain1; read-out: inhibition (10 μM)): 2%
inhibition at 10 µM (PKCi; read-out: % inhibition (range)): 0%
inhibition at 10 µM (PKCi; read-out: inhibition (10 μM)): 18.5%
inhibition at 10 µM (CaMKK2; read-out: % inhibition (range)): 50 to 75%
inhibition at 10 µM (CaMKK2; read-out: inhibition (10 μM)): 71.8%
inhibition at 10 µM (MAP3K4; read-out: % inhibition (range)): 0%
inhibition at 10 µM (MAP3K4; read-out: inhibition (10 μM)): -9.6%
inhibition at 10 µM (MST3; read-out: % inhibition (range)): 35 to 50%
inhibition at 10 µM (MST3; read-out: inhibition (10 μM)): 40.4%
inhibition at 10 µM (MLKL; read-out: % inhibition (range)): 50 to 75%
inhibition at 10 µM (MLKL; read-out: inhibition (10 μM)): 66.9%
inhibition at 10 µM (RSK1 domain1; read-out: % inhibition (range)): 0%
inhibition at 10 µM (RSK1 domain1; read-out: inhibition (10 μM)): 24%
inhibition at 10 µM (TLK2; read-out: % inhibition (range)): 0%
inhibition at 10 µM (TLK2; read-out: inhibition (10 μM)): 34%
inhibition at 10 µM (HPK1; read-out: % inhibition (range)): > 90%
inhibition at 10 µM (HPK1; read-out: inhibition (10 μM)): 97.5%
% inhibition (range) (AMPKa1, AMPKa2; 10 μM): 50-75%
inhibition (10 μM) (AMPKa1, AMPKa2): 52.0%
% inhibition (range) (PI4KA, PI4KAP2; 10 μM): 0.0%
inhibition (10 μM) (PI4KA, PI4KAP2): −5.5%
inhibition at 10 µM (p38a): 75 to 90%
% inhibition (range) (FYN, SRC, YES; 10 μM): 0.0%
inhibition (10 μM) (FYN, SRC, YES): 28.3%
% inhibition (range) (AurA; 10 μM): 50-75% and 75-90%
inhibition (10 μM) (AurA): 75.7%
inhibition at 10 µM (AurA; read-out: inhibition (10 μM)): 68.5%
inhibition at 10 µM (PIP4K2C; read-out: % inhibition (range)): 50 to 75%
inhibition at 10 µM (PIP4K2C; read-out: inhibition (10 μM)): 65.7%
inhibition at 10 µM (PLK1; read-out: % inhibition (range)): 0%
inhibition at 10 µM (PLK1; read-out: inhibition (10 μM)): 14.2%
inhibition at 10 µM (OSR1; read-out: % inhibition (range)): 0%
inhibition at 10 µM (OSR1; read-out: inhibition (10 μM)): -11.8%
inhibition (10 μM) (NuaK1): >90%
inhibition at 10 µM (NuaK1; read-out: % inhibition (range)): > 90%
inhibition at 10 µM (NuaK1; read-out: inhibition (10 μM)): 91%
inhibition at 10 µM (MAP2K3; read-out: % inhibition (range)): 0%
inhibition at 10 µM (MAP2K3; read-out: inhibition (10 μM)): -34.2%
inhibition at 10 µM (TLK1; read-out: % inhibition (range)): 0%
inhibition at 10 µM (TLK1; read-out: inhibition (10 μM)): 28.8%
IC50 (STK24 (MST3)): > 900 nM
IC50 (STK4 (MST1)): < 40 nM
